Where a name gives a salt, the structure may show the parent alone.

The record followed here is patent US11117890B2, “Substituted isoindole allosteric EGFR inhibitors” (Hoffmann-La Roche Inc., priority 2017, dated 2021).

The assay addresses T1, Phospho-EGFR in H1975 cell line (Homo sapiens, UniProt P00533, L858R/T790M).
T1 construct: H1975 cell line was obtained from American Type Culture Collection; host or cells: H1975
Put plainly: HTRF Phospo EGFR Assay (Cellular). In kind it is cell-based. The settings on record: H1975 cells; 6 hours compound incubation in starving medium; HTRF anti-Phospho-EGFR readout. How it is done:
HTRF Phospo EGFR Assay (Cellular)
H1975 cell line was obtained from American Type Culture Collection (Manassas, Va., USA). Cells were maintained at 37° C., 5% CO2 in complete Media RPMI 1640 without phenol red containing 0.3 mg/ml glutamine, 100 IU/ml penicillin, and […] (Gibco) supplemented with 10% fetal bovine serum (FBS) (Gibco). Compounds were diluted into starving medium RPMI 1640 Media without phenol red containing 0.3 mg/ml glutamine, 100 IU/ml penicillin, and […] (Gibco).
Cells were cultured overnight in a 384-well white plate (8000 cells/well) using 8 μl of complete medium/well. Cells were washed two times with 20 μl of starving medium. Media was removed by tapping plates on tissue and subsequently 8 μl of fresh starving medium/well was added. Then 4 μl/well of the 3×compound solution, containing a half-log dilution series of the compound or DMSO in starving medium, were added to the cells. After 6 hours at 37° C., 5% CO2 cells were lysed by adding to the compound mix 4 μl/well of the supplemented lysis buffer, followed by incubation for 30 min at room temperature with shaking. Lysates were stored at −20° C. overnight. The following day plates were thawed and 2 μl of anti-Phospho-EGFR Cryptate and 2 μl of anti-Phospho-EGFR-d2 antibody solutions prepared in the detection buffer were added. The plates were then incubated for at least 4 h at room temperature before reading the fluorescence emission at 620 and 665 nm using PHERAstar FX plate reader (BMG Labtech).

T1 sequence (P00533 25-1210 T790M/L858R): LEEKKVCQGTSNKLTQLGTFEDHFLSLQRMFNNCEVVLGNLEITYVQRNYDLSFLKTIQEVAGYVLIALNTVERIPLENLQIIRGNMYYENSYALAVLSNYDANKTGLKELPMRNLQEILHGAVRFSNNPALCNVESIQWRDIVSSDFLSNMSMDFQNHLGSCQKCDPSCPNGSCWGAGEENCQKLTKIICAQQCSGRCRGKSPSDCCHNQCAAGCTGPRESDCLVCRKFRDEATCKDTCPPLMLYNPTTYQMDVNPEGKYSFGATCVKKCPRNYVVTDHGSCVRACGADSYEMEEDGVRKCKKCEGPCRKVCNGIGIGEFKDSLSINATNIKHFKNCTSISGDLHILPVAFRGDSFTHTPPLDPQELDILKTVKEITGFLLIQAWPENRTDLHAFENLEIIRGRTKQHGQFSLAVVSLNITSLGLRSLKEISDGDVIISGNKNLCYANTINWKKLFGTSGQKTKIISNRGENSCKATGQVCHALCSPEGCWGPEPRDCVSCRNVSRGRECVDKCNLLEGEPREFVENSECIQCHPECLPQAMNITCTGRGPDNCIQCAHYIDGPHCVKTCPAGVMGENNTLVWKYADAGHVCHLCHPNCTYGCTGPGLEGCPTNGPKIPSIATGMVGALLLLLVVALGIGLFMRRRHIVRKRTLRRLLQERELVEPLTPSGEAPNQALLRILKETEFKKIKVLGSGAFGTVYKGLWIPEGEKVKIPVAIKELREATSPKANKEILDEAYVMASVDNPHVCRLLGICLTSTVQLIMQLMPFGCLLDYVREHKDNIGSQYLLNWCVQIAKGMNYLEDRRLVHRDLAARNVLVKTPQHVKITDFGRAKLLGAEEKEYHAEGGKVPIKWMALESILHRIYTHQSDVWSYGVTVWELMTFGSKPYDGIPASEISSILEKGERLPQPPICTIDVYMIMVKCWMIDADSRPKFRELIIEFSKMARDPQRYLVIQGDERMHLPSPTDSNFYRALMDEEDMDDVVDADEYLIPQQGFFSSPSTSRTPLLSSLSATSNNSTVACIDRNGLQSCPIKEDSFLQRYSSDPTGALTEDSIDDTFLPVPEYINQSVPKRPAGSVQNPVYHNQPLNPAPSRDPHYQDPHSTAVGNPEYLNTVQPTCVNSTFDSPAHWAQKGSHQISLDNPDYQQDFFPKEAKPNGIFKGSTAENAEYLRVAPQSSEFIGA

`Cc1c(C#Cc2ccc(N)nc2)ccc2c1C(=O)N(C(C(=O)Nc1ccccn1)c1cc(F)ccc1O)C2` (racemic) [Example 22, (2RS)-2-[6-[2-(6-Amino-3-pyridyl)ethynyl]-7-methyl1-oxo-isoindolin-2-yl]-2-(5-fluoro-2-hydroxy-phenyl)-N-(2-pyridyl)acetamide]: half-maximal inhibition (IC50) required 3 nM. In other words, the single-digit nanomolar range.
The same measure for `Nc1ccc(C#Cc2ccc3c(c2)C(=O)N(C(C(=O)Nc2nccs2)c2cc(Cl)ccc2O)C3)cn1` (racemic) [Example 23, (2RS)-2-[6-[2-(6-Amino-3-pyridyl)ethynyl]-1-oxo-isoindolin-2-yl]-2-(5-chloro-2-hydroxy-phenyl)-N-thiazol-2-yl-acetamide]: 4 nM.
Take `Nc1ccc(C#Cc2ccc3c(c2)C(=O)N(C(C(=O)Nc2nccs2)c2ccccc2O)C3)cn1` (racemic) [Example 24, (2RS)-2-[6-[2-(6-Amino-3-pyridyl)ethynyl]-1-oxo-isoindolin-2-yl]-2-(2-hydroxyphenyl)-N-thiazol-2-yl-acetamide]: the 50% inhibitory concentration (IC50) came out at 4 nM.
The same measure for `Nc1ccc(C#Cc2ccc3c(c2)C(=O)N(C(C(=O)Nc2nccs2)c2ncccc2O)C3)cn1` (racemic) [Example 25, (2RS)-2-[6-[2-(6-Amino-3-pyridyl)ethynyl]-1-oxo-isoindolin-2-yl]-2-(3-hydroxy-2-pyridyl)-N-thiazol-2-yl-acetamide trifluoroacetate]: 2 nM; for `O=C(Nc1nccs1)C(c1cc(F)ccc1O)N1Cc2ccc(C#Cc3cccnc3)c(F)c2C1=O` (racemic) [Example 26, (2RS)-2-(5-Fluoro-2-hydroxy-phenyl)-2-[7-fluoro-1-oxo-6-[2-(3-pyridyl)ethynyl]isoindolin-2-yl]-N-thiazol-2-yl-acetamide]: 2 nM.
In the case of `O=C(Nc1nccs1)C(c1cc(F)ccc1O)N1Cc2ccc(C#Cc3ccc(CN4CCOCC4)cc3)cc2C1=O` (racemic) [Example 27, (2RS)-2-(5-Fluoro-2-hydroxy-phenyl)-2-[6-[2-[4-(morpholinomethyl)phenyl]ethynyl]-1-oxo-isoindolin-2-yl]-N-thiazol-2-yl-acetamide] it was 5 nM; in that of `O=C(Nc1nccs1)C(c1cc(F)ccc1O)N1Cc2ccc(C#Cc3ccc(CN4CCC(O)CC4)cc3)cc2C1=O` (racemic) [Example 28, (2RS)-2-(5-Fluoro-2-hydroxy-phenyl)-2-[6-[2-[4-1(4-hydroxy-1-piperidyl)methyl]phenyllethynyl]-1-oxo-isoindolin-2-yl]-N-thiazol-2-yl-acetamide], 7 nM; in that of `O=C(Nc1nccs1)C(c1cc(F)ccc1O)N1Cc2ccc(C#Cc3ccc(CN4CCNCC4)cc3)cc2C1=O` (racemic) [Example 29, (2RS)-2-(5-Fluoro-2-hydroxy-phenyl)-2-[1-oxo-6-[2-[4-(piperazin-1-ylmethyl)phenyl]ethynyl]isoindolin-2-yl]-N-thiazol-2-yl-acetamide], 8 nM.
`CN1CCN(Cc2ccc(C#Cc3ccc4c(c3)C(=O)N(C(C(=O)Nc3nccs3)c3cc(F)ccc3O)C4)cc2)CC1` (racemic) [Example 30, (2RS)-2-(5-Fluoro-2-hydroxy-phenyl)-2-[6-[2-[4-1(4-methylpiperazin-1-yl)methyl]phenyl]ethynyl]-1-oxo-isoindolin-2-yll-N-thiazol-2-yl-acetamide] yielded an IC50 of 7 nM.
In the case of `CCN1CCN(Cc2ccc(C#Cc3ccc4c(c3)C(=O)N(C(C(=O)Nc3nccs3)c3cc(F)ccc3O)C4)cc2)CC1` (racemic) [Example 31, (2RS)-2-[6-[2-[4-1(4-Ethylpiperazin-1-yl)methyl]phenyl]ethynyl1-1-oxo-isoindolin-2-yl]-2-(5-fluoro-2-hydroxy-phenyl)-N-thiazol-2-yl-acetamide] it was 7 nM.
